Reference: patent US8912121B2, “Herbicidal compositions comprising 4-amino-3-chloro-5-fluoro-6-(4-chloro-2-fluoro-3-methoxyphenyl)pyridine-2-carboxylic acid or a derivative thereof and certain PS II inhibitors” (Dow Agrosciences LLC, priority 2012, dated 2014)

System: XANST (Xanthium strumarium, common cocklebur)
Test: Pre-emergence soil-applied mixtures, greenhouse
Assay type: in vivo, Xanthium strumarium L.
Details: for Visual Weed Control (%) Obs: 32 DAA
Description: Seeds or nutlets of the desired test plant species were planted in a soil matrix prepared by mixing a loam soil (32 percent silt, 23 percent clay, and 45 percent sand, with a pH of about 6.5 and an organic matter content of about 1.9 percent) and calcareous grit in an 80 to 20 ratio. The soil matrix was contained in plastic pots with a volume of 1 quart and a surface area of 83.6 square centimeters (cm^2).
Treatments consisted of the benzyl ester of 4-amino-3-chloro-5-fluoro-6-(4-chloro-2-fluoro-3-methoxy-phenyl)pyridine-2-carboxylic acid (compound A) formulated as an SC (suspension concentrate) and various herbicidal components alone and in combination. Forms of compound A were applied on an acid equivalent basis.
Other herbicidal components were applied on an acid equivalent or active ingredient basis and included the PSII-inhibiting herbicides, atrazine formulated as Atrazine® 90WDG, metribuzin formulated as Metribuzin 75DF, simazine formulated as Princep Caliber 90, tebuthiuron formulated as Spike 80DF, cyanazine (technical grade material), hexazinone (technical grade material), linuron (technical grade material), terbuthylazine (technical grade material), and diuron formulated as Diuron 4L.
Treatment requirements were calculated based upon the rates being tested, the concentration of active ingredient or acid equivalent in the formulation, and a 12 mL application volume at a rate of 187 L/ha.
For treatments comprised of formulated compounds, measured amounts of compounds were placed individually in 25 mL glass vials and diluted in a volume of 1.25% (v/v) Agri-Dex® crop oil concentrate (COC) to obtain 12× stock solutions. […] Application solutions were prepared by adding an appropriate amount of each stock solution (e.g., 1 mL) and diluted to the appropriate final concentrations with the addition of 10 mL of an aqueous mixture of 1.25% (v/v) COC so that the final spray solutions contained 1.25% (v/v) COC.
For treatments comprised of technical compounds, weighed amounts can be placed individually in 25 mL glass vials and dissolved in a volume of 97:3 (v/v) acetone/DMSO to obtain 12× stock solutions. […] Application solutions can be prepared by adding an appropriate amount of each stock solution (e.g., 1 mL) and diluted to the appropriate final concentrations with the addition of 10 mL of an aqueous mixture of 1.5% (v/v) COC so that the final spray solutions contain 1.25% (v/v) COC. When technical materials are used, the concentrated stock solutions can be added to the spray solutions so that the final acetone and DMSO concentrations of the application solutions are 16.2% and 0.5%, respectively.
For treatments comprised of formulated and technical compounds, weighed amounts of the technical materials can be placed individually in 25 mL glass vials and dissolved in a volume of 97:3 (v/v) acetone/DMSO to obtain 12× stock solutions, and measured amounts of the formulated compounds can be placed individually in 25 mL glass vials and diluted in a volume of 1.5% (v/v) COC or water to obtain 12× stock solutions. […] Application solutions can be prepared by adding an appropriate amount of each stock solution (e.g., 1 mL) and diluted to the appropriate final concentrations with the addition of an appropriate amount of an aqueous mixture of 1.5% (v/v) COC so that the final spray solutions contain 1.25% (v/v) COC. As required, additional water and/or 97:3 (v/v) acetone/DMSO can be added to individual application solutions so that the final acetone and DMSO concentrations of the application solutions being compared are 8.1% and 0.25%, respectively.
All stock solutions and applications solutions were visually inspected for compound compatibility prior to application. Spray solutions were applied to the soil with an overhead Mandel track sprayer equipped with a 8002E nozzles calibrated to deliver 187 L/ha over an application area of 0.503 m^2 at a spray height of 18 inches (46 cm) above average pot height. […]

[1] = Compound A Benzyl Ester 16 g ae/ha
[2] = Compound A Benzyl Ester 32 g ae/ha

CCNc1nc(Cl)nc(NC(C)C)n1 [Atrazine, 6-chloro-N-ethyl-N′-(1-methylethyl)-1,3,5-triazine-2,4-diamine, reference compound]
Visual Weed Control (%) Obs (560 g ai/ha): 68% | Visual Weed Control (%) Obs (1120 g ai/ha): 40%

COc1c(Cl)ccc(-c2nc(C(=O)OCc3ccccc3)c(Cl)c(N)c2F)c1F [Compound A Benzyl Ester, benzyl ester of 4-amino-3-chloro-5-fluoro-6-(4-chloro-2-fluoro-3-methoxy-phenyl)pyridine-2-carboxylic acid]
Visual Weed Control (%) Obs (8 g ae/ha): 33% | Visual Weed Control (%) Obs (16 g ae/ha): 35% | Visual Weed Control (%) Obs (32 g ae/ha): 65% | Visual Weed Control (%) - 27 DAA XANST Obs [1]: 10% | Visual Weed Control (%) - 29 DAA XANST Obs [1]: 0% | Visual Weed Control (%) - 33 DAA XANST Obs [1]: 38% | Visual Weed Control (%) - 27 DAA XANST Obs [2]: 25% | Visual Weed Control (%) - 29 DAA XANST Obs [2]: 5% | Visual Weed Control (%) - 33 DAA XANST Obs [2]: 35%

CCNc1nc(Cl)nc(NCC)n1 [Simazine, 6-chloro-N,N′-diethyl-1,3,5-triazine-2,4-diamine, reference compound]
Visual Weed Control (%) - 33 DAA XANST Obs (Simazine 1120 g ai/ha): 70% | Visual Weed Control (%) - 33 DAA XANST Obs (Simazine 2240 g ai/ha): 92%
